# Test results from patent US20070274951A1, “Combinations comprising HCV protease inhibitor(s) and HCV polymerase inhibitor(s), and methods of treatment related thereto” (priority 2006, published 2007).
# Read-outs that look alike come from different tables or passages of the source.
# System: HCV replicon RNA in replicon cells
# Experiment: Replicon RNA response to antiviral agent(s), real time PCR (Taqman assay)
# Assay type: cell-based
# Details: Hepatitis C virus, read-out: Inhibitor IC50 in replicon cells
# Description: Replicon RNA response to antiviral agent(s) was examined using the HCV protease inhibitor Formula Ia alone or in combination with HCV NS5B polymerase inhibitors 2′-methyl-adenosine, benzothiadiazine, indole-N-acetamide, or NM 107. Likewise, replicon RNA response to antiviral agent(s) was examined using the HCV protease inhibitor SCH 446211 (SCH 6) alone or in combination with HCV polymerase inhibitor ribavirin.
# In brief, replicon cells were seeded at 4000 cells/well in 96-well collagen 1-coated Biocoat plates (Becton Dickinson). At 24 hrs post-seeding, replicon cells were treated with the requisite anti-viral agent(s). The final concentration of DMSO was 0.5%, fetal bovine serum was 5%, and G418 (an aminoglycoside used as a selective agent) was 500 μg/ml. Media and anti-viral agent(s) were refreshed daily for 3 days, at which point the cells were washed with PBS and lysed in 1× cell lysis buffer (Ambion cat #8721). The replicon RNA level was measured using real time PCR (Taqman assay). The ampicon was located in NS5B. […] (SEQ ID NO: 2); the probe sequence was FAM-labeled […] (SEQ ID NO: 3). GAPDH RNA was used as endogenous control and was amplified in the same reaction as NS5B (multiplex PCR) using primers and VIC-labeled probe recommended by the manufacture (PE Applied Biosystem). The real-time RT-PCR reactions were run on ABI PRISM 7900HT Sequence Detection System using the following program: 48° C. for 30 min, 95° C. for 10 min, 40 cycles of 95° C. for 15 sec, 60° C. for 1 min. The ΔCT values (CT5B−CTGAPDH) were plotted against drug concentration and fitted to the sigmoid dose response model using SAS (SAS Institute Inc.) or Graphpad PRISM software (Graphpad Software Inc.). The IC50 is the drug dose necessary to achieve ΔCT=1 over the projected baseline. […] Alternatively, to quantitate the absolute amount replicon RNA, a standard curve was established by including serially diluted T7 transcripts of replicon RNA in the Taqman assay. All Taqman reagents were from PE Applied Biosystem. […]
compound,measurement,setting,value
CC(C)(C)NC(=O)N[C@H](C(=O)N1CC2C([C@H]1C(=O)NC(CC1CCC1)C(=O)C(N)=O)C2(C)C)C(C)(C)C (stereo partly drawn) [Formula Ia],IC50,cells selected by: Formula Ia + 2′-methyl-adenosine,3500 nM
same,IC50,cells selected by: Formula Ia + Indole-N-acetamide,2400 nM
same,IC50,cells selected by: No treatment,300 nM
